The text below walks through data of ChEMBL document CHEMBL4033631, “Discovery of benzothiazole derivatives as novel non-sulfamide NEDD8 activating enzyme inhibitors by target-based virtual screening” (Eur J Med Chem, 2017).

As a reminder, the IC50 is the midpoint of a concentration-inhibition curve.

A value given as a limit tells only on which side of the number the result lay.

The species named for one assay is Homo sapiens. The assay is described as follows: Inhibition of NAE in human HCT116 cells assessed as decrease in NEDD8 level after 4 hrs by Western blot analysis. In kind it is cell-based.
Details: not given
`Nc1ccc(SCC(=O)Nc2ccc3nc(NC(=O)c4ccc(C(F)(F)F)cc4)sc3c2)cc1`: the inhibition entry was “Dose-dependent effect”.
Still for that read-out and setting: then `O=C(CSc1ccc2ccccc2c1)Nc1ccc2nc(NC(=O)c3ccc(C(F)(F)F)cc3)sc2c1`, with “Dose-dependent effect”; and `O=C(CSc1cccc(O)c1)Nc1ccc2nc(NC(=O)c3ccc(C(F)(F)F)cc3)sc2c1`, with “Dose-dependent effect”.

Another assay has as its system HCT-116. In words: Antitumor activity against human HCT116 cells after 72 hrs by MTT assay. The assay is classed as functional, cell-based. The settings on record: HCT-116, 72 h. For orientation: Tetrazolium dyes change colour on reduction, which living cells bring about.
Regarding `COc1ccc(/C=N/NC(=O)c2ccc(NC(=O)c3ccccc3Br)cc2)cc1`, the IC50 is above 100 µM.
The compound `O=C(CSc1ncccc1C(=O)O)Nc1ccc2nc(NC(=O)c3ccc(C(F)(F)F)cc3)sc2c1` registered a 50% inhibitory concentration (IC50) of 2.3 µM.
Still for that read-out and setting: the value for `Cc1cc(C)cc(C(=O)Nc2nc3ccc(NC(=O)CSc4cccc(O)c4)cc3s2)c1` was 5.13 µM; that for `Cn1c(CNC(=O)c2cccs2)nnc1SCC(=O)Nc1cccc(Cl)c1` was above 100 µM.
Still for that read-out and setting: the value for `O=C(CSc1ccc(Cl)cc1)Nc1ccc2nc(NC(=O)c3ccc4ccccc4c3)sc2c1` was 4.04 µM; that for `O=C(CSc1ncc[nH]1)Nc1ccc2nc(NC(=O)c3ccc(C(F)(F)F)cc3)sc2c1` was 2.69 µM.
`Oc1ccc(Cl)cc1/C=N/c1ccc(-c2nc3ccccc3o2)c(O)c1` came in with an IC50 of 20.1 µM.
The same measure, in the same setting: then `O=C(CSc1cccc(O)c1)Nc1ccc2nc(NC(=O)c3ccc4ccccc4c3)sc2c1`, with 4.25 µM; and `O=C(CSc1cccc(O)c1)Nc1ccc2nc(NC(=O)c3ccccc3)sc2c1`, with 41 µM.
Still for that read-out and setting: then `O=C(Cn1cc(F)c(=O)n(CC(=O)Nc2ccc(Br)cn2)c1=O)Nc1ccc(Br)cn1`, with 11.1 µM; and `Cc1ccc(C(=O)Nc2nc3ccc(NC(=O)CSc4cccc(O)c4)cc3s2)cc1`, with 7.73 µM.
The same measure, in the same setting: then `NS(=O)(=O)OC[C@@H]1C[C@@H](n2ccc3c(N[C@H]4CCc5ccccc54)ncnc32)C[C@@H]1O` [PEVONEDISTAT], with 0.19 µM; and `Nc1ccc(SCC(=O)Nc2ccc3nc(NC(=O)c4ccc(C(F)(F)F)cc4)sc3c2)cc1`, with 0.1 µM.
In the case of `Cc1ccc(S(=O)(=O)Nc2nc(C)c(NC(=O)Nc3ccc(Cl)cc3)s2)cc1`, the IC50 came to 47.4 µM.
The same measure, in the same setting: the value for `O=C(CSC1CCCCC1)Nc1ccc2nc(NC(=O)c3ccc(C(F)(F)F)cc3)sc2c1` was 21 µM.
On the same count and under the same terms, the value for `CCCC(=O)Nc1nc2ccc(NC(=O)CSc3ccc(Cl)cc3)cc2s1` was 2.12 µM.
Take `O=C(CSc1ncccn1)Nc1ccc2nc(NC(=O)c3ccc(C(F)(F)F)cc3)sc2c1`: the IC50 amounted to 2.22 µM. This IC50 and that of the compound before are within 1.5-fold of each other.
Still for that read-out and setting: the value for `Cc1cc(C)cc(C(=O)Nc2nc3ccc(NC(=O)CSc4ccc(Cl)cc4)cc3s2)c1` was 65 µM; that for `O=C(CSc1cccc(O)c1)Nc1ccc2nc(NC(=O)c3ccc(F)cc3)sc2c1` was 6.17 µM.
The same measure, in the same setting: then `O=C(CSc1ccc(Cl)cc1)Nc1ccc2nc(NC(=O)c3ccc(F)cc3)sc2c1`, with 1.36 µM; and `Cn1c(CNC(=O)c2cccs2)nnc1SCC(=O)Nc1ccc(Cl)cc1`, with 91.4 µM; and `Cc1nc(Nc2nc3ccccc3o2)nc(C)c1C(=O)Nc1ccc(F)cc1`, with 15.3 µM.
For the compound `O=C(CSc1ccc2ccccc2c1)Nc1ccc2nc(NC(=O)c3ccc(C(F)(F)F)cc3)sc2c1`, the 50% inhibitory concentration (IC50) was found to be 0.3 µM.
In turn, `CCn1c(CNc2ccc(OC)cc2)nnc1SCC(=O)Nc1ccc(Cl)cc1` came in with an IC50 of 39.5 µM.
Still for that read-out and setting: then `O=C(CSc1nc2ccccc2[nH]1)Nc1ccc2nc(NC(=O)c3ccc(C(F)(F)F)cc3)sc2c1`, with 3.76 µM.
`COc1ccc(C(=O)Nc2nnc(SCC(=O)Nc3ccc(Br)cc3)s2)cc1OC` registered an IC50 of 66.6 µM.
Still for that read-out and setting: then `CC(O)c1cccc(NC(=O)c2cc(Br)ccc2Br)c1` (configuration not stated), with above 100 µM.
On the same count and under the same terms, then `O=C(CSc1cccc(O)c1)Nc1ccc2nc(NC(=O)c3cccs3)sc2c1`, with 7.02 µM; and `O=C(CSc1nnc(NC(=O)COc2ccccc2)s1)Nc1ccc(Br)cc1`, with above 100 µM.
Still for that read-out and setting: then `O=C(CSc1ccc(Cl)cc1)Nc1ccc2nc(NC(=O)c3ccc(C(F)(F)F)cc3)sc2c1`, with 0.93 µM; and `Cc1ccc(C(=O)Nc2nc3ccc(NC(=O)CSc4ccc(Cl)cc4)cc3s2)cc1`, with 2.12 µM.
In the case of `O=C(CSc1cccc(O)c1)Nc1ccc2nc(NC(=O)c3cc(Cl)cc(Cl)c3)sc2c1`, the IC50 turned out to be 5.44 µM.
Still for that read-out and setting: then `Cc1ccc(SCC(=O)Nc2ccc3nc(NC(=O)c4ccc(C(F)(F)F)cc4)sc3c2)c(C)c1`, with 0.32 µM; and `O=C(Cc1nnc(NC(=O)c2ccc(Cl)cc2)s1)N/N=C/c1ccc(O)cc1`, with 68.3 µM; and `O=C(CSc1cccc(O)c1)Nc1ccc2nc(NC(=O)c3ccc(C(F)(F)F)cc3)sc2c1`, with 0.51 µM.
The same measure, in the same setting: the value for `COc1cc(CNC(C)(C)CO)ccc1OCC(=O)Nc1ccc(C)cc1` was above 100 µM; that for `CCCC(=O)Nc1nc2ccc(NC(=O)CSc3cccc(O)c3)cc2s1` was 10.6 µM.
The same measure, in the same setting: the value for `O=C(Cc1nnc(NC(=O)c2ccc(Cl)cc2)s1)N/N=C/c1ccc(O)cc1O` was 38.1 µM.

The subject of a further assay is U2OS. The assay is described as follows: Antitumor activity against human U2OS cells after 72 hrs by MTT assay. The assay is classed as functional, cell-based.
Details: not given
Compound `COc1ccc(/C=N/NC(=O)c2ccc(NC(=O)c3ccccc3Br)cc2)cc1` gave a half-maximal inhibitory concentration (IC50) of 93.1 µM.
Still for that read-out and setting: then `O=C(CSc1ncccc1C(=O)O)Nc1ccc2nc(NC(=O)c3ccc(C(F)(F)F)cc3)sc2c1`, with 13.6 µM.
On the same count and under the same terms, the value for `Cc1cc(C)cc(C(=O)Nc2nc3ccc(NC(=O)CSc4cccc(O)c4)cc3s2)c1` was 2.82 µM; that for `Cn1c(CNC(=O)c2cccs2)nnc1SCC(=O)Nc1cccc(Cl)c1` was above 100 µM; that for `O=C(CSc1ccc(Cl)cc1)Nc1ccc2nc(NC(=O)c3ccc4ccccc4c3)sc2c1` was 14.5 µM.
The same measure, in the same setting: then `O=C(CSc1ncc[nH]1)Nc1ccc2nc(NC(=O)c3ccc(C(F)(F)F)cc3)sc2c1`, with 18.8 µM.
Compound `Oc1ccc(Cl)cc1/C=N/c1ccc(-c2nc3ccccc3o2)c(O)c1` returned a half-maximal inhibitory concentration (IC50) of 21.7 µM.
Still for that read-out and setting: the value for `O=C(CSc1cccc(O)c1)Nc1ccc2nc(NC(=O)c3ccc4ccccc4c3)sc2c1` was 1.77 µM.
In the case of `O=C(CSc1cccc(O)c1)Nc1ccc2nc(NC(=O)c3ccccc3)sc2c1`, the IC50 was above 100 µM.
Same read-out and setting: then `O=C(Cn1cc(F)c(=O)n(CC(=O)Nc2ccc(Br)cn2)c1=O)Nc1ccc(Br)cn1`, with 5.14 µM; and `Cc1ccc(C(=O)Nc2nc3ccc(NC(=O)CSc4cccc(O)c4)cc3s2)cc1`, with 12.4 µM; and `NS(=O)(=O)OC[C@@H]1C[C@@H](n2ccc3c(N[C@H]4CCc5ccccc54)ncnc32)C[C@@H]1O` [PEVONEDISTAT], with 0.16 µM.
Same read-out and setting: the value for `Nc1ccc(SCC(=O)Nc2ccc3nc(NC(=O)c4ccc(C(F)(F)F)cc4)sc3c2)cc1` was 1.22 µM; that for `Cc1ccc(S(=O)(=O)Nc2nc(C)c(NC(=O)Nc3ccc(Cl)cc3)s2)cc1` was 88.8 µM; that for `O=C(CSC1CCCCC1)Nc1ccc2nc(NC(=O)c3ccc(C(F)(F)F)cc3)sc2c1` was 12.3 µM.
Same read-out and setting: the value for `CCCC(=O)Nc1nc2ccc(NC(=O)CSc3ccc(Cl)cc3)cc2s1` was 3.19 µM; that for `O=C(CSc1ncccn1)Nc1ccc2nc(NC(=O)c3ccc(C(F)(F)F)cc3)sc2c1` was 28.1 µM; that for `Cc1cc(C)cc(C(=O)Nc2nc3ccc(NC(=O)CSc4ccc(Cl)cc4)cc3s2)c1` was above 100 µM.
`O=C(CSc1cccc(O)c1)Nc1ccc2nc(NC(=O)c3ccc(F)cc3)sc2c1` returned a half-inhibitory concentration (IC50) of 5.12 µM. In other words, the single-digit micromolar range.
`O=C(CSc1ccc(Cl)cc1)Nc1ccc2nc(NC(=O)c3ccc(F)cc3)sc2c1` returned an IC50 of 2.51 µM.
The same measure, in the same setting: then `Cn1c(CNC(=O)c2cccs2)nnc1SCC(=O)Nc1ccc(Cl)cc1`, with above 100 µM.
Same read-out and setting: then `Cc1nc(Nc2nc3ccccc3o2)nc(C)c1C(=O)Nc1ccc(F)cc1`, with 79.3 µM; and `O=C(CSc1ccc2ccccc2c1)Nc1ccc2nc(NC(=O)c3ccc(C(F)(F)F)cc3)sc2c1`, with 3.94 µM.
On to `CCn1c(CNc2ccc(OC)cc2)nnc1SCC(=O)Nc1ccc(Cl)cc1`, for which inhibition was half-maximal at 63.5 µM (IC50).
The same measure, in the same setting: then `O=C(CSc1nc2ccccc2[nH]1)Nc1ccc2nc(NC(=O)c3ccc(C(F)(F)F)cc3)sc2c1`, with 7.11 µM; and `COc1ccc(C(=O)Nc2nnc(SCC(=O)Nc3ccc(Br)cc3)s2)cc1OC`, with above 100 µM; and `CC(O)c1cccc(NC(=O)c2cc(Br)ccc2Br)c1` (configuration not stated), with above 100 µM.
The same measure, in the same setting: then `O=C(CSc1cccc(O)c1)Nc1ccc2nc(NC(=O)c3cccs3)sc2c1`, with 63 µM; and `O=C(CSc1nnc(NC(=O)COc2ccccc2)s1)Nc1ccc(Br)cc1`, with above 100 µM; and `O=C(CSc1ccc(Cl)cc1)Nc1ccc2nc(NC(=O)c3ccc(C(F)(F)F)cc3)sc2c1`, with 2.89 µM.
On the same count and under the same terms, then `Cc1ccc(C(=O)Nc2nc3ccc(NC(=O)CSc4ccc(Cl)cc4)cc3s2)cc1`, with 3.19 µM; and `O=C(CSc1cccc(O)c1)Nc1ccc2nc(NC(=O)c3cc(Cl)cc(Cl)c3)sc2c1`, with 1.53 µM; and `Cc1ccc(SCC(=O)Nc2ccc3nc(NC(=O)c4ccc(C(F)(F)F)cc4)sc3c2)c(C)c1`, with 1 µM.
In turn, `O=C(Cc1nnc(NC(=O)c2ccc(Cl)cc2)s1)N/N=C/c1ccc(O)cc1` showed a 50% inhibitory concentration (IC50) above 100 µM.
The same measure, in the same setting: the value for `O=C(CSc1cccc(O)c1)Nc1ccc2nc(NC(=O)c3ccc(C(F)(F)F)cc3)sc2c1` was 0.63 µM.
On the same count and under the same terms, the value for `COc1cc(CNC(C)(C)CO)ccc1OCC(=O)Nc1ccc(C)cc1` was above 100 µM.
Consider `CCCC(=O)Nc1nc2ccc(NC(=O)CSc3cccc(O)c3)cc2s1`, for which the IC50 came to 10.1 µM.
On the same count and under the same terms, then `O=C(Cc1nnc(NC(=O)c2ccc(Cl)cc2)s1)N/N=C/c1ccc(O)cc1O`, with 40.4 µM.

The species named for another assay is Homo sapiens. The assay is described as follows: Inhibition of NAE in human HCT116 cells assessed as decrease in NEDD8-UBC12 complex formation after 4 hrs by Western blot analysis. In kind it is cell-based.
Details: not given
`Nc1ccc(SCC(=O)Nc2ccc3nc(NC(=O)c4ccc(C(F)(F)F)cc4)sc3c2)cc1`: the inhibition result was “Dose-dependent effect”.
The same measure, in the same setting: the value for `O=C(CSc1ccc2ccccc2c1)Nc1ccc2nc(NC(=O)c3ccc(C(F)(F)F)cc3)sc2c1` was “Dose-dependent effect”; that for `O=C(CSc1cccc(O)c1)Nc1ccc2nc(NC(=O)c3ccc(C(F)(F)F)cc3)sc2c1` was “Dose-dependent effect”.
